Like-named read-outs stand apart in the source and are kept apart here.
Legend:
[1] = target: T1, hDDO (human D-aspartate oxidase) (Homo sapiens, UniProt Q99489); experiment: coupled HRP / Amplex UltraRed fluorescence assay; type: biochemical; set-up: gene DDO; recombinant
T1 sequence (Q99489 1-341): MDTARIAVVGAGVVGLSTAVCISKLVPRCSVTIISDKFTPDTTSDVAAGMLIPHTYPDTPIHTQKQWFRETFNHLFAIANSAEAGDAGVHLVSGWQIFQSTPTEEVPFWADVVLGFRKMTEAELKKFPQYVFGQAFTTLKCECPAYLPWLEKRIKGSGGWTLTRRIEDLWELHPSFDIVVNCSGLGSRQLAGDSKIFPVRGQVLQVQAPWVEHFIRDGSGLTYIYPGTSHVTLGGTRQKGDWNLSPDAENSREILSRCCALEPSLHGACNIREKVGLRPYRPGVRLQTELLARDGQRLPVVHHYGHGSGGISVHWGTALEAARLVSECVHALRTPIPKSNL

[2] = target: T2, mDDO (mouse D-aspartate oxidase) (Mus musculus, UniProt Q922Z0); experiment: coupled HRP / Amplex UltraRed fluorescence assay; type: biochemical; settings: D-Asp 7.5 mM; FAD 4 and 100 μM; inactive up to 300 μM
T2 construct: gene Ddo; recombinant
T2 sequence (Q922Z0 1-341): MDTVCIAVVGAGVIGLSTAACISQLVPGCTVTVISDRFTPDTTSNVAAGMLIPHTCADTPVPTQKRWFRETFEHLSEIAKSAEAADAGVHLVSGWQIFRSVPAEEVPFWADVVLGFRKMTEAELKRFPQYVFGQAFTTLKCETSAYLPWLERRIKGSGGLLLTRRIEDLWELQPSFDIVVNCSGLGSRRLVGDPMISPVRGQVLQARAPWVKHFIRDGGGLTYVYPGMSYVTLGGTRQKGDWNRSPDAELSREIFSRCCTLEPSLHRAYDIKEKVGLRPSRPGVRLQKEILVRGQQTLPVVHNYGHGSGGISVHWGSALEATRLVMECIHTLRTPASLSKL

[3] = target: T1, hDDO (human D-aspartate oxidase); experiment: biochemical; set-up: gene DDO
[4] = read-out: Concentration (μM) / 1000
[5] = read-out: Concentration (μM) / 100

In the case of `CC(NC(C)(C)C)C(=O)c1cccc(Cl)c1` (stereo not drawn) [bupropion], the activity at 1000 µM [1, 4] is reported as 89%.

`CN(C)CCCN1c2ccccc2Sc2ccc(Cl)cc21` [chlorpromazine] gave an activity at 1000 µM [1, 4] greater than 90%.

`CN1CCN(C2=Nc3cc(Cl)ccc3Nc3ccccc32)CC1` [clozapine] was tested, and the “coupled HRP / Amplex UltraRed fluorescence assay” value [2] was “both mDDO and hDDO was unaffected by clozapine at all concentrations tested” and the activity at 1000 µM [1, 5] was greater than 95%.

For `O=C(CCCN1CCC(O)(c2ccc(Cl)cc2)CC1)c1ccc(F)cc1` [haloperidol], the activity at 1000 µM [1, 5] was 100%.

For `Cc1cc2c(s1)Nc1ccccc1N=C2N1CCN(C)CC1` [olanzapine], the IC50 [3] was 23.4 ± 1.6 µM.
